# Where two headings read alike, the source gives them in different places.
# Key:
# [1] = test system: MRSA USA200; test: MIC against MRSA USA200; assay type: cell-based, Staphylococcus aureus; settings: for MIC: Staphylococcus aureus, read-out: MIC, Staphylococcus aureus isolate USA200
# Method: (§1) 96-well plates were seeded with 5 × 10^5 CFU/mL in a volume of 100 μL of tryptic soy broth (TSB) per well for Staphylococcus aureus assays. Compounds were dissolved in DMSO and serially diluted as 1:2 dilutions to give the final concentration ranging from 0.25 to 128 μg/mL per well. […] Plates were incubated at 37 °C for 18–20 hours and MIC was determined by reading OD625. For M.avium and M.abscessus, 7H9 broth media was used for determination of MICs. The final concentration was 5 × 10^5 CFU/mL in each well. The plate was incubated at 37 °C for 7–8 days and MICs were determined using a Tecan microplate reader (OD625) and resazurin reduction assay.
# [2] = test system: MRSA USA400; test: MIC against MRSA USA400; assay type: cell-based, Staphylococcus aureus; settings: for MIC: Staphylococcus aureus, read-out: MIC, Staphylococcus aureus isolate USA400
# Method: as §1
# [3] = test system: MRSA USA500; test: MIC against MRSA USA500; assay type: cell-based, Staphylococcus aureus; settings: TSB, 37 °C, 18–20 hours; for MIC: Staphylococcus aureus, read-out: MIC, Staphylococcus aureus isolate USA500
# Method: as §1
# [4] = test system: MRSA USA700; test: MIC against MRSA USA700; assay type: cell-based, Staphylococcus aureus; settings: for MIC: Staphylococcus aureus, read-out: MIC, Staphylococcus aureus isolate USA700
# Method: as §1
# [5] = test system: Methicillin susceptible Staphylococcus aureus; test: MIC against MSSA; assay type: cell-based; settings: for MIC: MSSA
# Method: as §1
# [6] = test system: Enterococcus faecalis; test: MIC against Enterococcus faecalis; assay type: cell-based; settings: read-out: MIC, EF
# [7] = test system: MRSA USA800; test: MIC against MRSA USA800; assay type: cell-based, Staphylococcus aureus; settings: Staphylococcus aureus; TSB, 37 °C, 18–20 hours; read-out: MIC, Staphylococcus aureus isolate USA800
# Method: as §1
# [8] = test system: MRSA USA300; test: MIC against MRSA USA300; assay type: cell-based, Staphylococcus aureus; settings: Staphylococcus aureus, read-out: MIC, Staphylococcus aureus isolate USA300
# Method: as §1
# [9] = test system: MRSA USA100; test: MIC against MRSA USA100; assay type: cell-based, Staphylococcus aureus; settings: Staphylococcus aureus, read-out: MIC, Staphylococcus aureus isolate USA100
# Method: as §1
# [10] = test system: MRSA (USA200); test: Colony morphology / small colony variant formation on TSA; assay type: cell-based, Staphylococcus aureus; settings: USA200 on TSA, 37 °C, up to 96 h (3a 4–16 μg/mL), 72 h (7c, rifampin)
# Method: MRSA was streaked and then incubated on tryptic soy agar (TSA) containing 0, 2, 4, 8 or 16 μg/mL of inhibitor 3a or 4 μg/mL of 7C or 0.025 μg/mL of rifampin at 37 °C for 96 h. MK-4 (100 μg/mL) was supplemented in TSA containing 8 μg/mL of 3a for the rescue experiment.
# [11] = test system: Pseudomonas aeruginosa; test: MIC against Pseudomonas aeruginosa; assay type: cell-based; settings: read-out: MIC, PA
# [12] = test system: MRSA (USA700) biofilms; test: S. aureus biofilm assay; assay type: cell-based, Staphylococcus aureus
# Method: Biofilm assays were performed using a method previously described with modification. A 96 well plate was precoated with 20% human plasma (Sigma) in 0.05 M carbonate buffer, pH 9.6 at 4 °C for 24 h. MRSA was cultured overnight in TSB containing 3% NaCl and 0.5% glucose. The overnight culture was diluted with TSB/NaCl/Glucose media until OD600 reached 0.05. After carefully removing the liquid from the 96 well plate, 200 μL of MRSA dilution was added to each well in triplicate. The plate was incubated at 37 °C for 24 h and carefully washed with PBS twice. MH broth (200 μL) containing a compound was added to each well in triplicate and incubated at 37 °C for 24 h. After washing with PBS twice, the biofilm was scraped in 100 μL of PBS and serially diluted and plated on TSA to determine CFU.
smiles,measurement,setting,value
COc1ccc2ccc(OCCCCCCCCN3CCc4ccccc4C3)cc2c1 [3d],"MIC, Staphylococcus aureus isolate USA200","[1]; TSB, 37 °C, 18–20 hours",>128 µg/mL
same,"MIC, Staphylococcus aureus isolate USA400","[2]; TSB, 37 °C, 18–20 hours",64 µg/mL
same,"MIC, Staphylococcus aureus isolate USA500",[3],128 µg/mL
same,"MIC, Staphylococcus aureus isolate USA700","[4]; TSB, 37 °C, 18–20 hours",32 µg/mL
same,"MIC, MSSA",[5],32 µg/mL
COc1ccc2ccc(OCCCCCCCCN3CCN(c4ccc(F)cc4)CC3)cc2c1 [3e],MIC,[4],> 128 µg/mL
same,MIC,[6],> 128 µg/mL
C=CCN(C)CCCCCCCCOc1ccc2cc(Br)c(OCc3ccccc3)cc2c1 [6a],MIC,"[1]; TSB, 37 °C, 18–20 hours",8 µg/mL
same,MIC,"[2]; TSB, 37 °C, 18–20 hours",8 µg/mL
same,MIC,"[4]; TSB, 37 °C, 18–20 hours",16 µg/mL
same,MIC,[7],64 µg/mL
same,MIC,[6],4 µg/mL
same,MIC,[5],16 µg/mL
"Fc1ccc(N2CCN(CCCOc3ccc4ccc(OCCCN5CCN(c6ccc(F)cc6)CC5)cc4c3)CC2)cc1 [7d, 2,7-bis(3-(4-(4-fluorophenyl)piperazin-1-yl)propoxy)naphthalene]",MIC,[4],> 128 µg/mL
Clc1ccc(CCNCCCCCCCCOc2ccc3cc(Br)c(OCc4ccccc4)cc3c2)cc1 [6d],MIC,"[2]; TSB, 37 °C, 18–20 hours",> 128 µg/mL
same,MIC,"[4]; TSB, 37 °C, 18–20 hours",64 µg/mL
same,MIC,[6],16 µg/mL
same,MIC,[5],64 µg/mL
same,MIC,"[8]; TSB, 37 °C, 18–20 hours",> 128 µg/mL
Brc1ccc(CCNCCCCCCCCOc2ccc3cc(Br)c(OCc4ccccc4)cc3c2)cc1 [6e],MIC,[1],128 µg/mL
same,MIC,[4],128 µg/mL
same,MIC,[8],> 128 µg/mL
Clc1ccc(CCNCCCCCCCCOc2ccc3cc(Br)ccc3c2)cc1 [5b],MIC,"[1]; TSB, 37 °C, 18–20 hours",16 µg/mL
same,MIC,"[2]; TSB, 37 °C, 18–20 hours",64 µg/mL
same,MIC,"[4]; TSB, 37 °C, 18–20 hours",64 µg/mL
same,MIC,"[9]; TSB, 37 °C, 18–20 hours",> 128 µg/mL
same,MIC,[6],16 µg/mL
same,MIC,"[8]; TSB, 37 °C, 18–20 hours",32 µg/mL
C=CCN(C)CCCOC/C=C/COc1ccc2ccc(OC)cc2c1 [4a],MIC,[1],128 µg/mL
same,MIC,[4],128 µg/mL
"CO[C@H]1/C=C/O[C@@]2(C)Oc3c(C)c(O)c4c(O)c(c(/C=N/N5CCN(C)CC5)c(O)c4c3C2=O)NC(=O)/C(C)=C\C=C\[C@H](C)[C@H](O)[C@@H](C)[C@@H](O)[C@@H](C)[C@H](OC(C)=O)[C@@H]1C [rifampin, reference compound]",induction of small colony variants (SCV),[10],showed growth of SCV
Brc1ccc2cc(OCCCCCCCCN3CCCCC3)ccc2c1 [5d],MIC,[2],4 µg/mL
same,MIC,[4],16 µg/mL
same,MIC,[9],8 µg/mL
"CC(=O)NC[C@H]1CN(c2ccc(N3CCOCC3)c(F)c2)C(=O)O1 [Linezolid, reference compound]",MIC,"[1]; TSB, 37 °C, 18–20 hours",1 µg/mL
same,MIC,"[2]; TSB, 37 °C, 18–20 hours",1 µg/mL
same,MIC,[3],0.5 µg/mL
same,MIC,"[4]; TSB, 37 °C, 18–20 hours",1 µg/mL
same,MIC,"[9]; TSB, 37 °C, 18–20 hours",0.5 µg/mL
same,MIC,[7],0.5 µg/mL
same,MIC,[6],> 32 µg/mL
same,MIC,[5],1 µg/mL
same,MIC,[11],1 µg/mL
same,MIC,"[8]; TSB, 37 °C, 18–20 hours",1 µg/mL
"CN(C)c1ccc(O)c2c1C[C@H]1C[C@H]3[C@H](N(C)C)C(O)=C(C(N)=O)C(=O)[C@@]3(O)C(O)=C1C2=O [Minomycin, Minocycline, reference compound]",MIC,"[2]; TSB, 37 °C, 18–20 hours",0.5 µg/mL
same,MIC,[3],< 0.06 µg/mL
same,"MIC, Staphylococcus aureus isolate USA700","[4]; TSB, 37 °C, 18–20 hours",< 0.06 µg/mL
same,MIC,[6],16 µg/mL
same,MRSA biofilm growth compared to the positive control,"[12]; USA700 biofilm, 0.5 and 0.03 mg/mL, 24 h",significant decrease
same,fold reduction of MRSA biofilm compared to the positive control,"[12]; USA 700 biofilm, 8300 × MIC",10^6 fold

# From PMC5223195, “Novel long-chain compounds with both immunomodulatory and MenA inhibitory activities against Staphylococcus aureus and its biofilm” (Scientific Reports, 2017)
